Where no end group is shown, it is not given here.
How the values were obtained:
ADH = biological target: T1, ADH (Saccharomyces cerevisiae, UniProt P00330); assay: ADH activation activity in vitro (improved assay kit method); type: biochemical; conditions: synthetic peptides; ADH 0.2 U/mL, NAD+ and ethanol, 37 °C, absorbance 340 nm every 10 s for 10 min; mean ± SD of three parallel experiments
T1 sequence (P00330 1-348): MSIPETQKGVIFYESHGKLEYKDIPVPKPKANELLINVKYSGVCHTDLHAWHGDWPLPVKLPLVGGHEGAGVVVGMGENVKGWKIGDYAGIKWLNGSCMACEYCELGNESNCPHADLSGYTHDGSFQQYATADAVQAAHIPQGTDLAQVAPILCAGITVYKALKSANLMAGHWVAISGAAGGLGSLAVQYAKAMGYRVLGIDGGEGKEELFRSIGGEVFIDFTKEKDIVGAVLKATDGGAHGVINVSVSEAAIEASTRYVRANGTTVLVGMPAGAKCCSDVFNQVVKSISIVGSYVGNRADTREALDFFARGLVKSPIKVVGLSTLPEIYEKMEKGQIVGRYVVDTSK
Experimental: The ADH activation activity in vitro was detected using an improved assay kit method. The specific steps are as follows: 50 μL of the sample solution was mixed with 150 μL of the assay reagent (including buffer, NAD^+, and ethanol); after equilibrating at 37 °C for 5 min, 50 μL of ADH (0.2 U/mL) was added to initiate the reaction. The absorbance at 340 nm was measured using a Varioskan Flash (Thermo Fisher Scientific, Waltham, MA, USA) full-wavelength scanning multimode reader, with readings taken every 10 s for 10 min. Distilled water was used as a negative control in place of the sample. The reaction kinetics curve was fitted, and the first derivative of the curve at 0 min was calculated as the initial reaction rate. The initial reaction rate of the sample was recorded as Vs, while that of the negative control was recorded as V0. The ADH activation rate of the sample can be calculated using the following equation:(1) ADH activation activity %=VS−V0/V0×100

ADH enzyme = conditions: cited from earlier work
Text: The results of molecular docking were visualized by selecting three peptides with the lowest binding energy, as depicted in Figure 5. Three peptides successfully docked onto the hydrophobic cavity near the ADH active site, primarily binding to ADH through hydrogen bonds and hydrophobic interactions. Twelve hydrogen bonds were formed between SSNCQPF and ADH residues (His 44, Gly 181, Leu 182, Gly 183, Val 245, Ser 246, Val 247, Met 270, Glu 333, Gly 339, Arg 340). Ten hydrogen bonds were formed between QPQQP ...

Substance | EC50 (ADH) | binding energy between peptide KPC and ADH enzyme (ADH enzyme)
QPQQPW [QPQQPW] | 2.73 ± 0.13 mM | –
TGCPVLQ [TGCPVLQ] | 2.26 ± 0.16 mM | –
SSNCQPF [SSNCQPF] | 1.35 ± 0.22 mM | –
Lys-Pro-Cys [KPC, Chicken-derived tripeptide KPC (Lys-Pro-Cys)] | – | -6.6 kcal/mol
